Laboratory results: patent US20230414607A1, “METHODS OF TREATMENT” (BOW RIVER LLC, priority 2017, published 2023)
Each block holds one compound with its values, some of them ahead of it.

Assays:
CYP3A4 = CYP3A4 (Homo sapiens, UniProt P08684); settings: in vivo; cited from earlier work
[1] = AUC and Cmax target safe levels of CYP3A4 substrate drugs (Table 1)
From the text: In various embodiments, the “Target safe levels” are non-limiting examples of the upper limit of fold change or percent of baseline where in some embodiments the benefits of treating the patient for the condition or disease for which the CYP3A4 substrate drug is indicated outweigh the risks associated with the effects of a drug-drug interaction. […] For purposes of the present methods, the blood plasma levels measured during co-administration of the CYP3A4 substrate drug with […] may be used to estimate the posaconazole DDI decay curve, e.g., using equation 1.

[2] = upper limit where benefits outweigh risks, approximation, can vary by about ±25%
[3] = component of ivacaftor/tezacaftor

CYP3A4, sequence (P08684 whole entry): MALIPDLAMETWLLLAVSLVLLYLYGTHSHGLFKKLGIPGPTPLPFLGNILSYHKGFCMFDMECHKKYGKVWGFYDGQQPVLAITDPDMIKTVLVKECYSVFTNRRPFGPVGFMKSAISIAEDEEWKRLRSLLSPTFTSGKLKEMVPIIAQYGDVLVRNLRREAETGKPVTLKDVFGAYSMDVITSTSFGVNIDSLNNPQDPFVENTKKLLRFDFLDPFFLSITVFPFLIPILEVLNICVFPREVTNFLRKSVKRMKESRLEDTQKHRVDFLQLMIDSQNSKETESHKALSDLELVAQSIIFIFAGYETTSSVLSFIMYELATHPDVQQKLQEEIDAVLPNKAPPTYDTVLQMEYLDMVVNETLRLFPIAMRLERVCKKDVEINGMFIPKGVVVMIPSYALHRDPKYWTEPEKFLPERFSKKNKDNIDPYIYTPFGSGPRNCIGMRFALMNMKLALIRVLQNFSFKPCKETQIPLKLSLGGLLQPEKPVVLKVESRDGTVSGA

Structure (SMILES): O=C(c1ccc(F)c(F)c1Nc1ccc(I)cc1F)N1CC(O)([C@@H]2CCCCN2)C1 [cobimetinib]
AUC co-administration levels, Fold change (CYP3A4): 6.7 fold | AUC co-administration levels, Percent of baseline (CYP3A4): 670% | Cmax co-administration levels, Fold change (CYP3A4): 3.2 fold | Cmax co-administration levels, Percent of baseline (CYP3A4): 320%

Structure (SMILES): COc1cc2c(cc1OC)[C@H]1C[C@@H](O)[C@H](CC(C)C)CN1CC2 [[+]-α-HTBZ]
AUC target safe level, Fold change ([1]; human): 2.1 fold | AUC target safe level, Percent of baseline ([1]; human): 210% | Cmax target safe level, Fold change ([1]; human): 1.7 fold | Cmax target safe level, Percent of baseline ([1]; human): 170%

Structure (SMILES): O=C1CCc2ccc(OCCCCN3CCN(c4cccc(Cl)c4Cl)CC3)cc2N1 [aripiprazole]
AUC target safe level, Fold change [1, 2]: 1.7 fold | AUC target safe level, Percent of baseline [1, 2]: 170% | Cmax target safe level, Fold change [1, 2]: 1.4 fold | Cmax target safe level, Percent of baseline [1, 2]: 140%

Structure (SMILES): CCc1nc(C(N)=O)c(Nc2ccc(N3CCC(N4CCN(C)CC4)CC3)c(OC)c2)nc1NC1CCOCC1 [gilteritinib]
AUC target safe level, Fold change ([1]; human): 2.2 fold | AUC target safe level, Percent of baseline ([1]; human): 220% | Cmax target safe level, Fold change ([1]; human): 1.20 fold | Cmax target safe level, Percent of baseline ([1]; human): 120%

Structure (SMILES): CC(C)COc1ccc(CNC(=O)N(Cc2ccc(F)cc2)C2CCN(C)CC2)cc1 [pimavanserin]
AUC target safe level, Fold change ([1]; human): 3 fold | AUC target safe level, Percent of baseline ([1]; human): 300% | Cmax target safe level, Fold change ([1]; human): 1.5 fold | Cmax target safe level, Percent of baseline ([1]; human): 150%

Structure (SMILES): COc1cc2c(cc1OC)[C@H]1C[C@@H](OC(=O)[C@@H](N)C(C)C)[C@H](CC(C)C)CN1CC2 [valbenazine]
AUC target safe level, Fold change ([1]; human): val: 2.2 fold | AUC target safe level, Percent of baseline ([1]; human): val: 220% | Cmax target safe level, Fold change ([1]; human): val: 1.6 fold | Cmax target safe level, Percent of baseline ([1]; human): val: 160%

Structure (SMILES): COc1c(OCCCN2CCOCC2)ccc2c1N=C(NC(=O)c1cnc(N)nc1)N1CCN=C21 [copanlisib]
AUC target safe level, Fold change ([1]; human): 1.53 fold | AUC target safe level, Percent of baseline ([1]; human): 153% | Cmax target safe level, Fold change ([1]; human): 1.03 fold | Cmax target safe level, Percent of baseline ([1]; human): 103%

Structure (SMILES): COC(=O)N[C@@H](C)CNc1nccc(-c2cn(C(C)C)nc2-c2cc(Cl)cc(NS(C)(=O)=O)c2F)n1 [encorafenib]
AUC co-administration levels, Fold change (CYP3A4): 3 fold | AUC co-administration levels, Percent of baseline (CYP3A4): 300% | Cmax co-administration levels, Fold change (CYP3A4): 1.45 fold | Cmax co-administration levels, Percent of baseline (CYP3A4): 145% | elevation of baseline AUC when coadministered with posaconazole (percent of baseline) (CYP3A4): 300%

Structure (SMILES): O=c1ccc2ccc(OCCCCN3CCN(c4cccc5sccc45)CC3)cc2[nH]1 [brexpiprazole]
AUC target safe level, Fold change ([1]; human): 2 fold | AUC target safe level, Percent of baseline ([1]; human): 200% | Cmax target safe level, Fold change ([1]; human): 1.2 fold | Cmax target safe level, Percent of baseline ([1]; human): 120%

Structure (SMILES): COc1cc(OC)cc(N(CCNC(C)C)c2ccc3ncc(-c4cnn(C)c4)nc3c2)c1 [erdafitinib]
AUC target safe level, Fold change ([1]; human): 1.34 fold | AUC target safe level, Percent of baseline ([1]; human): 134% | Cmax target safe level, Fold change ([1]; human): 1.05 fold | Cmax target safe level, Percent of baseline ([1]; human): 105%

Structure (SMILES): COc1cccc(-c2c(C)n(Cc3c(F)cccc3C(F)(F)F)c(=O)n(C[C@H](NCCCC(=O)O)c3ccccc3)c2=O)c1F [elagolix sodium]
AUC target safe level, Fold change ([1]; human): 2.2 fold | AUC target safe level, Percent of baseline ([1]; human): 220% | Cmax target safe level, Fold change ([1]; human): 1.77 fold | Cmax target safe level, Percent of baseline ([1]; human): 177%

Structure (SMILES): N#CC[C@H](C1CCCC1)n1cc(-c2ncnc3[nH]ccc23)cn1 [ruxolitinib]
AUC target safe level, Fold change ([1]; human): 1.91 fold | AUC target safe level, Percent of baseline ([1]; human): 191% | Cmax target safe level, Fold change ([1]; human): 1.33 fold | Cmax target safe level, Percent of baseline ([1]; human): 133%

Structure (SMILES): CC(C)(NC(=O)C1=C(O)[C@@H]2Oc3c(O)ccc4c3[C@@]23CCN(CC2CC2)[C@H](C4)[C@]3(O)C1)c1nc(-c2ccccc2)no1 [naldemedine]
AUC target safe level, Fold change [1, 2]: 1.9 fold | AUC target safe level, Percent of baseline [1, 2]: 190% | Cmax target safe level, Fold change [1, 2]: 1.38 fold | Cmax target safe level, Percent of baseline [1, 2]: 138%

Structure (SMILES): CN(C(=O)c1ccccc1)[C@@H]1C[C@H]2O[C@@](C)([C@@H]1O)n1c3ccccc3c3c4c(c5c6ccccc6n2c5c31)C(=O)NC4 [CGP62221]
AUC target safe level, Fold change ([1]; human): 3.5 fold | AUC target safe level, Percent of baseline ([1]; human): 350%

Structure (SMILES): C=CC(=O)N1CCC[C@@H](n2nc(-c3ccc(Oc4ccccc4)cc3)c3c(N)ncnc32)C1 [ibrutinib]
AUC target safe level, Percent of baseline ([1]; human): 300%

The next lines start with the values.

AUC target safe level, Percent of baseline ([1]; human): 400%
Structure (SMILES): CN(C)C(=O)N[C@H]1CC[C@H](CCN2CCN(c3cccc(Cl)c3Cl)CC2)CC1 [cariprazine]

AUC target safe level, Fold change ([1]; human): 1.73 fold | AUC target safe level, Percent of baseline ([1]; human): 173% | Cmax target safe level, Fold change ([1]; human): 1.62 fold | Cmax target safe level, Percent of baseline ([1]; human): 162%
Structure (SMILES): Cc1[nH]c2ccccc2c1CCNCc1ccc(/C=C/C(=O)NO)cc1 [panobinostat]

AUC target safe level, Fold change ([1]; human): 2.0 fold | AUC target safe level, Percent of baseline ([1]; human): 200%
Structure (SMILES): CC(C)(CO)c1cc2cc(NC(=O)C3(c4ccc5c(c4)OC(F)(F)O5)CC3)c(F)cc2n1C[C@@H](O)CO [tezacaftor]

AUC target safe level, Fold change [1, 2]: 1.51 fold | AUC target safe level, Percent of baseline [1, 2]: 151% | Cmax target safe level, Fold change [1, 2]: 1.49 fold | Cmax target safe level, Percent of baseline [1, 2]: 149%
Structure (SMILES): CCN(CC)CCNC(=O)c1c(C)[nH]c(/C=C2\C(=O)Nc3ccc(F)cc32)c1C [sunitinib]

AUC target safe level, Fold change ([1]; human): 2.4 fold | AUC target safe level, Percent of baseline ([1]; human): 240% | Cmax target safe level, Fold change ([1]; human): 1.4 fold | Cmax target safe level, Percent of baseline ([1]; human): 140%
Structure (SMILES): CN1CC[C@@H](NC(=O)Nc2ccc(C#N)cc2)C[C@@H]1c1nc2ccccc2[nH]1 [glasdegib]

AUC target safe level, Fold change ([1]; human): 1.24 fold | AUC target safe level, Percent of baseline ([1]; human): 124% | Cmax target safe level, Fold change ([1]; human): 1.38 fold | Cmax target safe level, Percent of baseline ([1]; human): 138%
Structure (SMILES): CNC(=O)c1ccc(N2C(=S)N(c3cnc(C#N)c(C(F)(F)F)c3)C(=O)C23CCC3)cc1F [apalutamide]

AUC target safe level, Fold change [1, 3]: 2.95; fold | AUC target safe level, Percent of baseline [1, 3]: 295%; | Cmax target safe level, Fold change [1, 3]: 2.47; fold | Cmax target safe level, Percent of baseline [1, 3]: 247%; | AUC target safe level, Fold change [1, 2]: 3 fold | AUC target safe level, Percent of baseline [1, 2]: 300% | Cmax target safe level, Fold change [1, 2]: 2.7 fold | Cmax target safe level, Percent of baseline [1, 2]: 270%
Structure (SMILES): CC(C)(C)c1cc(C(C)(C)C)c(NC(=O)c2c[nH]c3ccccc3c2=O)cc1O [ivacaftor]

AUC target safe level, Fold change ([1]; human): 10.4 fold | AUC target safe level, Percent of baseline ([1]; human): 1040%
Structure (SMILES): CO[C@@H]1[C@H](N(C)C(=O)c2ccccc2)C[C@H]2O[C@]1(C)n1c3ccccc3c3c4c(c5c6ccccc6n2c5c31)C(=O)NC4 [midostaurin]

AUC target safe level, Percent of baseline ([1]; human): 175%
Structure (SMILES): C[C@@H]1CCN(C(=O)CC#N)C[C@@H]1N(C)c1ncnc2[nH]ccc12 [tofacitinib]

AUC target safe level, Fold change ([1]; human): 3 fold | AUC target safe level, Percent of baseline ([1]; human): 300%
Structure (SMILES): CC(=O)OCC(=O)[C@@]12N=C(C)O[C@@H]1C[C@H]1[C@@H]3CCC4=CC(=O)C=C[C@]4(C)[C@H]3[C@@H](O)C[C@@]12C [deflazacort]

AUC target safe level, Fold change ([1]; human): 2 fold | AUC target safe level, Percent of baseline ([1]; human): 200% | Cmax target safe level, Fold change ([1]; human): 1.7 fold | Cmax target safe level, Percent of baseline ([1]; human): 170%
Structure (SMILES): C[C@H](Nc1ncnc2[nH]cnc12)c1cc2cccc(Cl)c2c(=O)n1-c1ccccc1 [duvelisib]
